Results: patent US7803930B2, “Antisense modulation of apolipoprotein B-expression” (Isis Pharmaceuticals, Inc., priority 2002, dated 2010)
Read-outs that look alike come from different tables or passages of the source.

How the values were obtained:
apolipoprotein B mRNA = test: Lean vs high fat fed C57BL/6 mice (Example 20): target mRNA levels in liver; format: in vivo, mouse; settings: 50 mg/kg i.p. every three days, six weeks
Description: Male C57BL/6 mice were divided into two matched groups; (1) wild-type control animals (lean animals) and (2) animals receiving a high fat diet (60% kcal fat). Control animals received saline treatment and were maintained on a normal rodent diet. After overnight fasting, mice from each group were dosed intraperitoneally every three days with saline or 50 mg/kg ISIS 147764 (SEQ ID No: 109) for six weeks. At study termination and forty eight hours after the final injections, animals were sacrificed and evaluated for target mRNA levels in liver, cholesterol and triglyceride levels, liver enzyme levels and serum glucose levels.

[1] = system: mouse apolipoprotein B protein; test: High fat fed C57BL/6 mice, 6 week timecourse: liver apolipoprotein B protein, immunoblot; format: in vivo; settings: 5, 25, 50 mg/kg, six weeks
Excerpt: Liver protein samples collected at the end of the treatment period were subjected to immunoblot analysis using an antibody directed to mouse apolipoprotein B protein (Gladstone Institute, San Francisco, Calif.).

[2] = format: in vivo, mouse; settings: for Cholesterol Levels / Glucose Levels / Lipoprotein Levels HDL / Lipoprotein Levels LDL / Lipoprotein Levels VLDL: ApoE knockout mice, high fat diet, six weeks; for Liver Enzyme Levels ALT / Liver Enzyme Levels AST: mouse, in vivo, ip
Excerpt: Female ApoE knockout mice ranged in age from 5 to 7 weeks and were placed on a normal diet for 2 weeks before study initiation. ApoE knockout mice were then fed ad libitum a 60% fat diet, with 0.15% added cholesterol to induce dyslipidemia and obesity. Control animals were maintained on a high-fat diet with no added cholesterol. […]
At study termination and forty eight hours after the final injections, animals were sacrificed and evaluated for target mRNA levels in liver by RT-PCR methods verified by Northern Blot analysis, glucose levels, cholesterol and lipid levels by HPLC separation methods and triglyceride and liver enzyme levels (performed by LabCorp Preclinical Services; San Diego, Calif.).
Data are normalized to saline controls.

[3] = system: mouse apolipoprotein B protein; test: Transgenic mice dosing study (Example 52): immunoblot of mouse apolipoprotein B protein in serum and liver; format: in vivo
[4] = system: human apolipoprotein B mRNA; test: Transgenic mice dosing study (Example 52): human apolipoprotein B mRNA in liver; format: in vivo, human transgene in mouse; settings: for % Inhibition, human apolipoprotein B mRNA: liver, 12 weeks
Description: (§1) A long-term study of inhibition of human apolipoprotein B by ISIS 301012 in C57BL/6NTac-TgN(APOB100) mice (Taconic, Germantown, N.Y.) was conducted for a 3 month period. Mice were dosed intraperitoneally twice a week with 10 or 25 mg/kg ISIS 301012 (SEQ ID No: 247) for 12 weeks. Saline-injected animals served as controls. Each treatment group comprised 4 animals.
(§2) The study was terminated forty eight hours after the final injections in the eighth week of treatment, when animals were sacrificed and evaluated for target mRNA levels in liver, apolipoprotein B protein levels in liver and serum cholesterol and liver enzyme levels. In addition, the expression of endogenous mouse apolipoprotein B levels in liver was measured to evaluate any effects of ISIS 301012 on mouse apolipoprotein B mRNA expression.
(§3) Human and mouse apolipoprotein B mRNA levels in livers of animals treated for 12 weeks were measured by real-time PCR as described herein. Each result represents the average of data from 4 animals.

[5] = Long-term study in lean CD-1 mice (Example 63): serum lipids and indicators of toxicity (ALT, AST, histology, steatosis); format: in vivo, mouse; settings: one month
Description: In accordance with the present invention, the toxicity of ISIS 301012 (SEQ ID NO: 247) is investigated in a long-term, 3 month study in mice. Two-month old male and female CD-1 mice (Charles River Laboratories, Wilmington, Mass.) are dosed with 2, 5, 12.5, 25 or 50 mg/kg of ISIS 301012 twice per week for first week, and every 4 days thereafter. The mice are maintained on a standard rodent diet. Saline and control oligonucleotide animals serve as controls and are injected on the same schedule. Each treatment group contains 6 to 10 mice of each sex, and each treatment group is duplicated, one group for a 1 month study termination, the other for a 3 month study termination. After the 1 or 3 month treatment periods, the mice are sacrificed and evaluated for target expression in liver, lipid levels in serum and indicators of toxicity. Liver samples are procured, RNA is isolated and apolipoprotein B mRNA expression is measured by real-time PCR as described in other examples herein. Serum lipids, including total cholesterol, LDL-cholesterol, HDL-cholesterol and triglycerides, are evaluated by routine clinical analysis using an Olympus Clinical Analyzer (Olympus America Inc., Melville, N.Y.). Ratios of LDL-cholesterol to HDL-cholesterol and total cholesterol to HDL-cholesterol are also calculated. Analyses of serum ALT and AST, inflammatory infiltrates in tissue and basophilic granules in tissue provide an assessment of toxicities related to the treatment. Hepatic steatosis, or accumulation of lipids in the liver, is assessed by routine histological analysis with oil red 0 stain and measurement of liver tissue triglycerides using a Triglyceride GPO Assay (Sigma-Aldrich, St. Louis, Mo.).
The toxicity study also includes groups of animals allowed to recover following cessation of oligonucleotide treatment. Both male and female CD-1 mice (Charles River Laboratories, Wilmington, Mass.) are treated with 5, 10, 50 mg/kg of ISIS 301012 twice per week for the first week and every 4 days thereafter. Saline and, control oligonucleotide injected animals serve as controls. Each treatment group includes 6 animals per sex. After 3 months of treatment, animals remain untreated for an additional 3 months, after which they are sacrificed. The same parameters are evaluated as in the mice sacrificed immediately after 3 months of treatment.
Additionally, the expected dose-response toxicities were observed. ALT and AST levels, measured by routine clinical procedures on an Olympus Clinical Analyzer (Olympus America Inc., Melville, N.Y.), are increased in mice treated with 25 or 50 mg/kg of ISIS 301012. Tissues were prepared for analysis by routine histological procedures.

[6] = system: mouse apolipoprotein B mRNA; test: Transgenic mice dosing study (Example 52): mouse apolipoprotein B mRNA in liver; format: in vivo; settings: for % Inhibition, mouse apolipoprotein B mRNA: liver, 12 weeks
Description: as §1, §2, §3

Substance: GTCCCTGAAGATGTCAATGC (2'-MOE gapmer, further chemistry not given here) [ISIS 147764]
- Percent Change mRNA (apolipoprotein B mRNA; High Fat Group): −87%
- Percent Change mRNA (apolipoprotein B mRNA; Lean-control group): −73%
- apolipoprotein B protein expression in liver (immunoblot) [1]: decreases apolipoprotein B protein expression in liver in a dose-dependent manner
- Cholesterol Levels ([2]; 5 mg/kg i.p. every three days): 1630 mg/dL
- Glucose Levels ([2]; 5 mg/kg i.p. every three days): 195 mg/dL
- Lipoprotein Levels HDL ([2]; 5 mg/kg i.p. every three days): 49 mg/dL
- Lipoprotein Levels LDL ([2]; 5 mg/kg i.p. every three days): 475 mg/dL
- Lipoprotein Levels VLDL ([2]; 5 mg/kg i.p. every three days): 1111 mg/dL
- Cholesterol Levels ([2]; 25 mg/kg i.p. every three days): 1750 mg/dL
- Glucose Levels ([2]; 25 mg/kg i.p. every three days): 209 mg/dL
- Lipoprotein Levels HDL ([2]; 25 mg/kg i.p. every three days): 62 mg/dL
- Lipoprotein Levels LDL ([2]; 25 mg/kg i.p. every three days): 500 mg/dL
- Lipoprotein Levels VLDL ([2]; 25 mg/kg i.p. every three days): 1194 mg/dL
- Cholesterol Levels ([2]; 50 mg/kg i.p. every three days): 1490 mg/dL
- Glucose Levels ([2]; 50 mg/kg i.p. every three days): 191 mg/dL
- Lipoprotein Levels HDL ([2]; 50 mg/kg i.p. every three days): 61 mg/dL
- Lipoprotein Levels LDL ([2]; 50 mg/kg i.p. every three days): 325 mg/dL
- Lipoprotein Levels VLDL ([2]; 50 mg/kg i.p. every three days): 1113 mg/dL
- Liver Enzyme Levels ALT ([2]; 5 mg/kg): 48 IU/L
- Liver Enzyme Levels AST ([2]; 5 mg/kg): 50 IU/L
- Liver Enzyme Levels ALT ([2]; 25 mg/kg): 59 IU/L
- Liver Enzyme Levels AST ([2]; 25 mg/kg): 60 IU/L
- Liver Enzyme Levels ALT ([2]; 50 mg/kg): 87 IU/L
- Liver Enzyme Levels AST ([2]; 50 mg/kg): 85 IU/L

Substance: ISIS 301012: SEQ ID NO: 247, antisense oligonucleotide targeted to human apolipoprotein B (antisense GCCTCAGTCTGCTTCGCACC; chemistry not given here)
- expression of the mouse apolipoprotein B protein in liver (immunoblot) [3]: does not change significantly
- expression of the mouse apolipoprotein B protein in serum (immunoblot) [3]: no significant change
- reduction of human apolipoprotein B mRNA in liver ([4]; 12 weeks of treatment): ≤ 75%
- % Inhibition, human apolipoprotein B mRNA ([4]; 10 mg/kg i.p. twice a week): 65%
- % Inhibition, human apolipoprotein B mRNA ([4]; 25 mg/kg i.p. twice a week): 75%
- ALT and AST levels ([5]; 25 or 50 mg/kg): increased
- doses at which basophilic granules in liver and kidney tissue were observed [5]: above 12.5 mg/kg
- doses at which mild lymphohistiocytic infiltrates were observed in various tissues [5]: above 12.5 mg/kg
- steatosis (oil red O staining) [5]: no steatosis
- mouse liver apolipoprotein B mRNA ([6]; 12 weeks of treatment): unaffected
- % Inhibition, mouse apolipoprotein B mRNA ([6]; 10 mg/kg i.p. twice a week): 6%
- % Inhibition, mouse apolipoprotein B mRNA ([6]; 25 mg/kg i.p. twice a week): 6%
